For orientation: EC50 means the concentration at which the effect is half-maximal.

For data set [1], the system named is breast carcinoma HCC1187 cells. In words: cells. To be noted: for CC50: Homo sapiens, HCC1187, compound alone, unit not given in Table 1, read-out: LC50 HCC1187. Format: cell-based. The source says: For further analyses, we used compounds that have the selective cytotoxicity index either above 20 (non-toxic compounds) or below 1 (toxic compounds) with the aim to identify targets that are responsible for the selective activity of the identified compounds toward cancer cells. To confirm that the effects of the selected compounds are not only specific to MIA PaCa-2 cells, we evaluated their cytotoxic activities on breast carcinoma HCC1187 cells (Table 1). […] For easy comparison, the data with MIA PaCa-2 cells were also included in Table 1. […] We also noticed that, again with a few exceptions, HCC1187 cells are more resistant to the non-toxic compounds in the presence of ATO as compared to MIA PaCa-2 cells. In contrast, HCC1187 cells are more sensitive to all toxic compounds in the presence of ATO as compared to MIA PaCa-2 cells. The high sensitivity of HCC1187 cells to toxic compounds contributed to the increased selective cytotoxicity index.

Data set [2] concerns MIA PaCa-2 cells. The data set can be described thus: Hydrogen peroxide cell-based assay (ROS induction), MIA PaCa-2 cells. To be noted: Homo sapiens, hydrogen peroxide level relative to DMSO-treated cells (100%), read-out: ROS increase, % MIA PaCa-2. As for the experimental part: Cells were incubated for 2 h with either compounds (30 μM) or DMSO in a 96-well plate. After the treatment, 80 μl of cell culture medium was collected and the level of hydrogen peroxide was determined using a Hydrogen Peroxide Cell-Based Assay kit (Cayman).
Cells were incubated with the compounds for 4 h and the level of ROS induction was measured by a hydrogen peroxide cell-based assay kit. Compounds were assayed at a fixed concentration of 30 μM and the measured level of hydrogen peroxide was expressed as percentage in relation to DMSO-treated cells (100%). […] This distinction was more evident for compounds with the highest selective cytotoxicity index. […] We conclude that the selective induction of ROS in cancer cells is required but not sufficient factor for the selective anti-tumor activity.

The target in data set [3] is T1, human GSR enzyme (recombinant GSR) (Homo sapiens, UniProt P00390).
T1 construct: made in house; host or cells: E. coli BL21(DE3)
T1 sequence (P00390 44-522): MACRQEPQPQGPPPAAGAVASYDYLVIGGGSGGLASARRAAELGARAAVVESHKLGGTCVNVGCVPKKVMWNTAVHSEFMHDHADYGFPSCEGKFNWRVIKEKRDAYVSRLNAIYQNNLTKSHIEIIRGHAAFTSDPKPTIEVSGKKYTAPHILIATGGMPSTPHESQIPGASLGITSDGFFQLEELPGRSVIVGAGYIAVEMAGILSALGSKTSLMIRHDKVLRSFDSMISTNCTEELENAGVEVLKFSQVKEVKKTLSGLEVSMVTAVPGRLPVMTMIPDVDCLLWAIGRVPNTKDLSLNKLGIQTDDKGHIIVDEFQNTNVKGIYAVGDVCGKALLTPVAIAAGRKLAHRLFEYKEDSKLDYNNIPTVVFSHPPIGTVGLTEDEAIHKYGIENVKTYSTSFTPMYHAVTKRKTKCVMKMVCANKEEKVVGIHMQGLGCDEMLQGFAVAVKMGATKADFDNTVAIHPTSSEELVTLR
The data set can be described thus: Glutathione reductase (GSR) activity assay. Format: biochemical. To be noted: 2 h at 25°C, read-out: GSR, enzyme residual activity as compared to DMSO-treated sample. Here is the method:
Recombinant GSR (0.5 u/well) in a 96-well plate was incubated in the GSR assay buffer (50 mM potassium phosphate buffer, pH 7.5 supplemented with 1 mM EDTA), 100 μl with and without compound (30 μM) for 2 h at 25°C. At the end of incubation, 100 μl of solution containing NADPH (0.087 mM), oxidized glutathione (GSSG) (0.95 mM) and 1 μl of the reagent that detects ratio of GSSG to reduced glutathione (GSH) (Abcam) were added and the mixture was incubated for an additional 1 h at 25°C. GSR activity was measured by using 490-nm excitation and monitoring fluorescence at 520 nm with a fluorescence plate reader. One unit of GSR activity was defined as the amount of enzyme required to produce 1 μM of GSH in a total reaction volume of 200 μl in 1 minute in the GSR assay buffer containing NADPH (0.087 mM), GSSG (0.95 mM) and 1 μl of GSH/GSSG ratio detection reagent (Abcam).
Next, we evaluated the inhibitory activity of the selected compounds against human GSR enzyme using recombinant GSR and Abcam GSH/GSSG ratio detection reagent (Table 1). Briefly, GSR activity was measured by following oxidized glutathione (GSSG) reduction in the presence of NADPH and expressed as percentage of residual activity with respect to DMSO-treated enzyme. The residual activity of GSR for both the non-toxic and toxic compounds was quite heterogeneous, ranging from 100% (compounds 38) to 3% (compound 32). […] We thus conclude that GSR inhibitory activity alone cannot be used to predict the selective cytotoxicity index.

Data set [4] has as its system human primary hepatocytes. The data set can be described thus: cells. The note with it: Hepatocyte, read-out: EC50, μM Hepatocytes.
Text: (§1) We selected hepatocytes as normal cells because hepatocytes are mediate toxicity to multiple drugs and are used as a standard to assess toxicity of drugs in vitro [28]. […] For comparison with the standard of care, doxorubicin was also included in this analysis.
Data set [5] in a line: in vitro. To be noted: human, primary hepatocytes.
Text: as §1
For data set [6], the system named is Complex I (bovine heart mitochondria). The data set can be described thus: MitoCheck Complex I activity assay. To be noted: 30 μM; for Mito Check I, enzyme residual activity as compared to DMSO-treated sample: bovine heart mitochondria, NADH oxidation.
Experimental: MitoCheck Complex I activity was determined as described in the manual of the manufacturer’s manual (Cayman). Briefly, compounds (30 μM) or DMSO were mixed with the Complex I activity assay buffer that contained bovine heart mitochondria reagent, NADH, and ubiquinone in the presence of KCN to inhibit complex IV activity. The level of Complex I activity was monitored in a kinetic assay of NADH oxidation by measuring a decrease in absorbance at 340 nm. The residual Complex I activity was calculated by dividing the rate of compound wells by the rate of DMSO wells for the linear portion of the curve.
To test possible effects of compounds on ETC, we analyzed the Complex I-mediated NADH oxidation using a MitoCheck Complex I Activity Assay Kit. The level of NADH oxidation was measured by a decrease in absorbance at 340 nm and expressed as percentage of residual activity in relation to DMSO-treated mitochondria (Table 1). […] Complex I activity was estimated by the rate of NADH oxidation which was also affected by NADH/NADPH-dehydrogenase-mediated redox cycling.

`CCNC1=C(Cl)C(=O)c2ccccc2C1=O` [compound 3]: the values for the CC50 in data set [1] and in data set [5] were 23.6 µM and 81.9 µM, respectively. Also, the activity at 30 µM in data set [2] was found to be 182%. Also, the remaining activity at 30 µM in data set [3] was determined as 59%. The concentration giving a half-maximal response (EC50) in data set [4] came out at 81.9 µM. For the same compound, the “Mito Check I, enzyme residual activity as compared to DMSO-treated sample” value in data set [6] was found to be 93%.
Regarding `O=C1C(Cl)=C(NCCO)C(=O)c2ccccc21` [compound 17], the CC50 amounted to 19.2 µM in data set [1] and 83 µM in data set [5]. Besides, the “Selective cytotoxicity index HCC 1187 ATO” value in data set [1] (human) was determined as 46.7. Besides, the activity at 30 µM in data set [2] was 295%. Besides, the remaining activity at 30 µM in data set [3] was determined as 65%. In data set [4], the EC50 worked out at 83 µM. The “Mito Check I, enzyme residual activity as compared to DMSO-treated sample” value in data set [6] is 38%.
Consider `CCCC(=O)NC1=C(Cl)C(=O)c2ccccc2C1=O` [compound 31], for which the CC50 in data set [1] came to 1 µM. Also, in data set [2], the activity at 30 µM is 251%. Moreover, the remaining activity at 30 µM in data set [3] was determined as 28%. Moreover, the EC50 in data set [4] is 1.6 µM. The CC50 in data set [5] was 1.6 µM. Besides, in data set [6], the “stimulation of Complex I activity” value is recorded as “more than 30%” and the “Mito Check I, enzyme residual activity as compared to DMSO-treated sample” value stood at 159%.
